In PubChem BioAssay AID248 (DTP/NCI, 2004):
Inconclusive results and toxic doses are left out. Rule as the data show it: active = T/C of 150% or more; inactive = T/C below 125%.

System: L1210 leukemia ip in BDF1 mice, survival T/C
Assay: NCI In Vivo Anticancer Drug Screen. Data for tumor model L1210 Leukemia (intraperitoneal) in B6D2F1 (BDF1) mice
Details: endpoint: mean survival time, higher = longer survival
Summary of the method: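 Antitumor effect is assessed in tumor-bearing animals. Survival in the compound arm is compared with a vehicle-dosed control arm and expressed as their quotient.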

[1] = dose: 100.0 mg/kg/injection, schedule: Q01DX009 (ip), vehicle: saline with Tween-80
[2] = dose: 200.0 mg/kg/injection, schedule: Q01DX009 (ip), vehicle: saline with Tween-80
[3] = dose: 75.0 mg/kg/injection, schedule: Q01DX001 (ip), vehicle: saline
[4] = dose: 100.0 mg/kg/injection, schedule: Q01DX009 (ip), vehicle: Klucel (hydroxypropylcellulose) (HPC)
[5] = dose: 100.0 mg/kg/injection, schedule: Q04DX003 (ip), vehicle: Klucel (hydroxypropylcellulose) (HPC)
[6] = dose: 200.0 mg/kg/injection, schedule: Q01DX009 (ip), vehicle: Klucel (hydroxypropylcellulose) (HPC)
[7] = dose: 200.0 mg/kg/injection, schedule: Q04DX003 (ip), vehicle: Klucel (hydroxypropylcellulose) (HPC)
[8] = dose: 400.0 mg/kg/injection, schedule: Q01DX009 (ip), vehicle: Klucel (hydroxypropylcellulose) (HPC)
[9] = dose: 400.0 mg/kg/injection, schedule: Q04DX003 (ip), vehicle: Klucel (hydroxypropylcellulose) (HPC)
[10] = dose: 50.0 mg/kg/injection, schedule: Q01DX009 (ip), vehicle: saline
[11] = dose: 100.0 mg/kg/injection, schedule: Q01DX009 (ip), vehicle: saline
[12] = dose: 100.0 mg/kg/injection, schedule: Q04DX003 (ip), vehicle: saline
[13] = dose: 100.0 mg/kg/injection, schedule: Q01DX001 (ip), vehicle: saline
[14] = dose: 400.0 mg/kg/injection, schedule: Q01DX001 (ip), vehicle: saline
[15] = dose: 100.0 mg/kg/injection, schedule: Q01DX001 (ip), vehicle: Klucel (hydroxypropylcellulose) (HPC)
[16] = dose: 200.0 mg/kg/injection, schedule: Q01DX001 (ip), vehicle: Klucel (hydroxypropylcellulose) (HPC)
[17] = dose: 400.0 mg/kg/injection, schedule: Q01DX001 (ip), vehicle: Klucel (hydroxypropylcellulose) (HPC)
[18] = dose: 100.0 mg/kg/injection, schedule: Q04DX002 (ip), vehicle: saline with Tween-80
[19] = dose: 200.0 mg/kg/injection, schedule: Q04DX002 (ip), vehicle: saline with Tween-80
[20] = dose: 200.0 mg/kg/injection, schedule: Q01DX009 (ip), vehicle: saline

Measured: T/C

COc1cc(Br)c(CC2c3cc(OC)c(OC)cc3CC[N+]2(C)C)cc1OC (configuration not stated)
inactive: dose: 100.0 mg/kg/injection, schedule: Q01DX001 (ip), vehicle: water 100 % of control | dose: 100.0 mg/kg/injection, schedule: Q01DX009 (ip), vehicle: water 101 % of control | dose: 100.0 mg/kg/injection, schedule: Q04DX003 (ip), vehicle: water 100 % of control | dose: 200.0 mg/kg/injection, schedule: Q01DX001 (ip), vehicle: water 102 % of control | dose: 200.0 mg/kg/injection, schedule: Q01DX009 (ip), vehicle: water 87 % of control | dose: 200.0 mg/kg/injection, schedule: Q04DX003 (ip), vehicle: water 97 % of control | dose: 400.0 mg/kg/injection, schedule: Q01DX001 (ip), vehicle: water 100 % of control | dose: 400.0 mg/kg/injection, schedule: Q04DX003 (ip), vehicle: water 91 % of control

COC(=O)c1sc2ccccc2c1CC#N
inactive: dose: 100.0 mg/kg/injection, schedule: Q01DX001 (ip), vehicle: carboxymethylcellulose (CMC) 103 % of control | dose: 200.0 mg/kg/injection, schedule: Q01DX001 (ip), vehicle: carboxymethylcellulose (CMC) 86 % of control | dose: 400.0 mg/kg/injection, schedule: Q01DX001 (ip), vehicle: carboxymethylcellulose (CMC) 103 % of control

CCCCNC(=O)Nc1cc(C)c(C)cc1C
inactive: dose: 25.0 mg/kg/injection, schedule: Q01DX009 (ip), vehicle: gum acacia 106 % of control | dose: 50.0 mg/kg/injection, schedule: Q01DX009 (ip), vehicle: gum acacia 96 % of control | dose: 100.0 mg/kg/injection, schedule: Q01DX009 (ip), vehicle: gum acacia 88 % of control | dose: 100.0 mg/kg/injection, schedule: Q04DX003 (ip), vehicle: gum acacia 91 % of control | dose: 200.0 mg/kg/injection, schedule: Q01DX009 (ip), vehicle: gum acacia 92 % of control | dose: 200.0 mg/kg/injection, schedule: Q04DX003 (ip), vehicle: gum acacia 96 % of control | dose: 400.0 mg/kg/injection, schedule: Q04DX003 (ip), vehicle: gum acacia 87 % of control

Cn1cnc2c(SCc3ccccc3)ncnc21
inactive: dose: 75.0 mg/kg/injection, schedule: Q01DX009 (ip), vehicle: saline with Tween-80 97 % of control | [1] 104 % of control | [2] 117 % of control

Clc1ccc(N2CCNCC2)cc1
inactive: [3] 101 % of control

CCOc1ccccc1NC(=S)NC(=O)c1cccc([N+](=O)[O-])c1
inactive: [4] 100 % of control | [5] 98 % of control | [6] 96 % of control | [7] 98 % of control | [8] 96 % of control | [9] 100 % of control

NC(=O)C(c1ccccc1)N1CCCC1 (configuration not stated)
inactive: dose: 25.0 mg/kg/injection, schedule: Q01DX009 (ip), vehicle: saline 91 % of control | dose: 25.0 mg/kg/injection, schedule: Q04DX003 (ip), vehicle: saline 98 % of control | [10] 94 % of control | dose: 50.0 mg/kg/injection, schedule: Q04DX003 (ip), vehicle: saline 97 % of control | [11] 91 % of control | [12] 95 % of control

CCOC(=O)C(O)(O)C(C)C
inactive: [13] 113 % of control | [14] 113 % of control

O=C(NC(=O)C(C(=O)c1ccccc1)c1ccccc1)c1ccccc1 (configuration not stated)
inactive: dose: 100.0 mg/kg/injection, schedule: Q01DX001 (ip), vehicle: other 86 % of control | dose: 200.0 mg/kg/injection, schedule: Q01DX001 (ip), vehicle: other 89 % of control | dose: 400.0 mg/kg/injection, schedule: Q01DX001 (ip), vehicle: other 91 % of control

Cc1cc(C(=O)O)c(C)n1-c1ccccc1C(=O)O
inactive: dose: 50.0 mg/kg/injection, schedule: Q01DX009 (ip), vehicle: Klucel (hydroxypropylcellulose) (HPC) 102 % of control | [15] 103 % of control | [4] 89 % of control | [16] 92 % of control | [6] 93 % of control | [17] 94 % of control

CCN=C(NCC)c1ccc(NC(=O)Nc2ccc(NC(=O)Nc3ccc(C(=NCC)NCC)cc3)cc2)cc1
inactive: dose: 0.87 mg/kg/injection, schedule: Q01DX Z (ip), vehicle: water 100 % of control | dose: 1.75 mg/kg/injection, schedule: Q01DX Z (ip), vehicle: water 100 % of control | dose: 3.5 mg/kg/injection, schedule: Q01DX Z (ip), vehicle: water 97 % of control | dose: 7.0 mg/kg/injection, schedule: Q01DX Z (ip), vehicle: water 103 % of control

COC(=N\S(=O)(=O)c1ccccc1)/C(=N\S(=O)(=O)c1ccccc1)OC
inactive: [15] 100 % of control | [16] 104 % of control | [17] 102 % of control

CCOCC(C(=O)OCC)C(=O)OCC
inactive: [1] 111 % of control | [2] 111 % of control | dose: 400.0 mg/kg/injection, schedule: Q01DX009 (ip), vehicle: saline with Tween-80 97 % of control

O=C1CCCCC1c1sc([N+](=O)[O-])cc1[N+](=O)[O-] (configuration not stated)
inactive: [18] 93 % of control | [19] 104 % of control

CCOC(=O)c1cc2c([nH]1)CCCC2
inactive: [18] 100 % of control | [19] 94 % of control | dose: 400.0 mg/kg/injection, schedule: Q04DX002 (ip), vehicle: saline with Tween-80 97 % of control

CCOC(=O)c1c(C)[nH]c2ccc(O)cc12
inactive: [4] 92 % of control | [5] 95 % of control | [6] 104 % of control | [7] 100 % of control | [8] 114 % of control | [9] 100 % of control

O=S(=O)(Cl)CCCBr
inactive: dose: 100.0 mg/kg/injection, schedule: Q01DX009 (ip), vehicle: saline sonified 93 % of control | dose: 200.0 mg/kg/injection, schedule: Q01DX009 (ip), vehicle: saline sonified 86 % of control

Nc1ncnc2c1ncn2C1OC(CO)C(NC(=S)SCc2ccccc2)C1O (configuration not stated)
inactive: [3] 101 % of control | dose: 150.0 mg/kg/injection, schedule: Q01DX001 (ip), vehicle: saline 87 % of control | dose: 300.0 mg/kg/injection, schedule: Q01DX001 (ip), vehicle: saline 101 % of control

CCN(CC)CCN(C)CCN(CC)CC
inactive: [10] 91 % of control | [11] 102 % of control | [12] 93 % of control | [20] 101 % of control | dose: 200.0 mg/kg/injection, schedule: Q04DX003 (ip), vehicle: saline 98 % of control

O=Cc1cc(C(=O)c2ccccn2)c2cc(Cl)cc(Cl)c2n1
inactive: [15] 94 % of control | [4] 107 % of control | [16] 89 % of control | [6] 96 % of control | [17] 94 % of control

O=S(=O)(Cc1ccccc1)C(=C(N1CCCCC1)N1CCCCC1)S(=O)(=O)Cc1ccccc1
inactive: [13] 102 % of control | [11] 94 % of control | dose: 200.0 mg/kg/injection, schedule: Q01DX001 (ip), vehicle: saline 104 % of control | [20] 93 % of control | [14] 98 % of control | dose: 400.0 mg/kg/injection, schedule: Q01DX009 (ip), vehicle: saline 96 % of control
